Laboratory results from ChEMBL document CHEMBL5352488, “Development of novel S-N3-DABO derivatives as potent non-nucleoside reverse transcriptase inhibitors with improved potency and selectivity” (Eur J Med Chem, 2023).

How the values were obtained:
[1] = tested on: Human immunodeficiency virus 1; assay: Anti-HIV activity against wild type HIV-1 IIIB infected in human MT4 cells assessed as inhibition of virus-induced cytopathic effect by MTT assay; type: functional, organism-based; settings: Human immunodeficiency virus 1, IIIB
[2] = tested on: Human immunodeficiency virus 1; assay: Anti-HIV activity against drug resistant HIV-1 harboring F227L/V106A mutant infected in human MT4 cells assessed as inhibition of virus-induced cytopathic effect by MTT assay; type: functional, organism-based; settings: Human immunodeficiency virus 1, MT4
[3] = tested on: Human immunodeficiency virus 1; assay: Anti-HIV activity against drug resistant HIV-1 harboring E138K mutant infected in human MT4 cells assessed as inhibition of virus-induced cytopathic effect by MTT assay; type: functional, organism-based; settings: Human immunodeficiency virus 1, MT4
[4] = tested on: Human immunodeficiency virus 1; assay: Anti-HIV activity against drug resistant HIV-1 harboring Y188L mutant infected in human MT4 cells assessed as inhibition of virus-induced cytopathic effect by MTT assay; type: functional, organism-based; settings: Human immunodeficiency virus 1, MT4
[5] = Selectivity index, ratio of CC50 for cytotoxicity against human MT4 cells assessed as reduction in cell viability by MTT assay to EC50 for anti-HIV activity against wild type HIV-1 IIIB infected in human MT4 cells assessed as inhibition of virus-induced cytopathic effect by MTT assay; type: toxicity, cell-based; settings: read-out: Ratio CC50/EC50
[6] = Cytotoxicity against human MT4 cells assessed as reduction in cell viability by MTT assay; type: toxicity, cell-based
[7] = tested on: Human immunodeficiency virus 1; assay: Anti-HIV activity against drug resistant HIV-1 harboring Y181C mutant infected in human MT4 cells assessed as inhibition of virus-induced cytopathic effect by MTT assay; type: functional, organism-based; settings: Human immunodeficiency virus 1, MT4
[8] = tested on: Human immunodeficiency virus 1; assay: Anti-HIV activity against drug resistant HIV-1 harboring L100I mutant infected in human MT4 cells assessed as inhibition of virus-induced cytopathic effect by MTT assay; type: functional, organism-based; settings: Human immunodeficiency virus 1, MT4
[9] = tested on: Human immunodeficiency virus 1; assay: Anti-HIV activity against drug resistant HIV-1 harboring K103N mutant infected in human MT4 cells assessed as inhibition of virus-induced cytopathic effect by MTT assay; type: functional, organism-based; settings: Human immunodeficiency virus 1, MT4
[10] = target: Human immunodeficiency virus type 1 reverse transcriptase (Human immunodeficiency virus 1, UniProt Q72547); assay: Inhibition of wild type HIV-1 reverse transcriptase assessed as assessed as inhibition of biotin deoxyuridine triphosphate incorporation into […]

| SMILES | EC50 [1] [µM] | EC50 [2] [µM] | EC50 [3] [µM] | EC50 [4] [µM] | selectivity ratio [5] | CC50 [6] [µM] | EC50 [7] [µM] | EC50 [8] [µM] | EC50 [9] [µM] | IC50 [10] [µM] |
| --- | --- | --- | --- | --- | --- | --- | --- | --- | --- | --- |
| Cc1c(C(C#N)c2ccccc2)nc(SC(C)C)[nH]c1=O (stereo unspecified) | 0.37 | 21.4 | 0.87 | > 204 |  |  |  |  |  |  |
| CC(C)Sc1nc(C(N=[N+]=[N-])c2ccccc2)c(C(C)C)c(=O)[nH]1 (stereo unspecified) | 0.47 |  |  |  | > 780 | > 364 |  |  |  |  |
| Cc1c(C(N=[N+]=[N-])c2ccc(Cl)cc2)nc(SC(C)C)[nH]c1=O (stereo unspecified) | 0.22 | > 357 | 3.61 | > 357 | > 1650 | > 357 | > 357 | 11 | 61.1 |  |
| Cc1ccc(C(N=[N+]=[N-])c2nc(SC(C)C)[nH]c(=O)c2C(C)C)cc1 (stereo unspecified) | 0.52 |  |  |  | > 667 | > 350 |  |  |  |  |
| Cc1c(C(N=[N+]=[N-])c2ccc(Br)cc2)nc(SC(C)C)[nH]c1=O (stereo unspecified) | 0.23 |  |  |  | > 1410 | > 317 |  |  |  |  |
| Cc1c(C(N=[N+]=[N-])c2cccc3ccccc23)nc(SC(C)C)[nH]c1=O (stereo unspecified) | 0.34 | > 342 | 1.37 | > 342 | > 1000 | > 342 | 186 | 5.27 | > 342 |  |
| CC(C)Sc1nc(C(N=[N+]=[N-])c2ccc(-c3ccccc3)cc2)c(C(C)C)c(=O)[nH]1 (stereo unspecified) | > 59.2 |  |  |  | < 1 | 84.2 |  |  |  |  |
| Cc1c(C(N=[N+]=[N-])c2ccc3ccccc3c2)nc(SC(C)C)[nH]c1=O (stereo unspecified) | 0.44 | 65 | 5.04 | 69.7 | 11 | 4.89 | 60.3 | 11.3 | > 154 |  |
| CC(C)Sc1nc(C(N=[N+]=[N-])c2ccc(F)cc2)c(C(C)C)c(=O)[nH]1 (stereo unspecified) | 1.16 |  |  |  | > 298 | > 346 |  |  |  |  |
| CCc1c(C(N=[N+]=[N-])c2ccc(C)cc2)nc(SC(C)C)[nH]c1=O (stereo unspecified) | 0.16 | 314 | 0.45 | > 364 | > 2300 | > 364 | 114 | 0.13 | 3.9 | 0.17 |
| Cc1c(C(N=[N+]=[N-])c2ccc(OC(F)(F)F)cc2)nc(SC(C)C)[nH]c1=O (stereo unspecified) | 4.93 |  |  |  | > 63 | > 313 |  |  |  |  |
| Cc1c(C(N=[N+]=[N-])c2ccc(F)cc2)nc(SC(C)C)[nH]c1=O (stereo unspecified) | 0.29 |  |  |  | 1090 | 320 |  |  |  |  |
| CCc1c(C(N=[N+]=[N-])c2ccc3ccccc3c2)nc(SC(C)C)[nH]c1=O (stereo unspecified) | 0.52 |  |  |  | < 8 | 3.98 |  |  |  |  |
| CCc1c(C(N=[N+]=[N-])c2ccccc2)nc(SC(C)C)[nH]c1=O (stereo unspecified) | 0.14 | 14.9 | 0.55 | 188 | > 2770 | > 379 | 6.02 | 12.2 | 6.03 |  |
| CCc1c(C(N=[N+]=[N-])c2ccc(F)cc2)nc(SC(C)C)[nH]c1=O (stereo unspecified) | 0.38 |  |  |  | > 956 | > 360 |  |  |  |  |
| CCc1c(C(N=[N+]=[N-])c2cc(OC)cc(OC)c2)nc(SC(C)C)[nH]c1=O (stereo unspecified) | 0.92 |  |  |  | > 349 | > 321 |  |  |  |  |
| Cc1cc(C)cc(C(N=[N+]=[N-])c2nc(SC(C)C)[nH]c(=O)c2C(C)C)c1 (stereo unspecified) | 0.38 |  |  |  | > 878 | > 336 |  |  |  |  |

| SMILES | EC50 [1] [µM] | EC50 [2] [µM] | EC50 [3] [µM] | EC50 [4] [µM] | selectivity ratio [5] | CC50 [6] [µM] | EC50 [7] [µM] | EC50 [8] [µM] | EC50 [9] [µM] | IC50 [10] [µM] |
| --- | --- | --- | --- | --- | --- | --- | --- | --- | --- | --- |
| CCc1c(C(N=[N+]=[N-])c2cccc3ccccc23)nc(SC(C)C)[nH]c1=O (stereo unspecified) | 0.96 | > 10.2 | 7.34 | 55.8 | 81 | 77.7 | 17.1 | 9.18 | 71.6 |  |
| CCc1c(C(N=[N+]=[N-])c2ccc(Br)cc2)nc(SC(C)C)[nH]c1=O (stereo unspecified) | 0.29 | 95.7 | 1.86 | 160 | > 1040 | > 306 | 65.2 | 10.4 | 51.2 |  |
| Cc1c(C(N=[N+]=[N-])c2ccccc2)nc(SC(C)C)[nH]c1=O (stereo unspecified) | 0.055 | > 396 | 2.66 | > 396 | > 7190 | > 396 | > 396 | 10.6 | > 387 |  |
| Cc1c(C(N=[N+]=[N-])c2ccc(-c3ccccc3)cc2)nc(SC(C)C)[nH]c1=O (stereo unspecified) | > 319 |  |  |  |  | > 319 |  |  |  |  |
| CCc1c(C(N=[N+]=[N-])c2cc(C)cc(C)c2)nc(SC(C)C)[nH]c1=O (stereo unspecified) | 0.067 | 14.3 | 0.41 | > 350 | > 5240 | > 350 | 4.68 | 0.97 | 4.82 | 0.1 |
| CCc1c(C(N=[N+]=[N-])c2ccc(OC(F)(F)F)cc2)nc(SC(C)C)[nH]c1=O (stereo unspecified) | 6.02 | 9.71 | 0.26 | 62.2 | > 50 | > 302 | 60.4 | 29.5 | 38.2 |  |
| CC(C)Sc1nc(C(N=[N+]=[N-])c2ccc(Cl)cc2)c(C(C)C)c(=O)[nH]1 (stereo unspecified) | 0.9 |  |  |  | > 367 | > 331 |  |  |  |  |
| COc1cc(OC)cc(C(N=[N+]=[N-])c2nc(SC(C)C)[nH]c(=O)c2C(C)C)c1 (stereo unspecified) | 1.78 | 58.9 | 4.56 | 63.1 | 55 | 97.6 | 54.7 | 10.2 | > 139 |  |
| CCc1c(C(N=[N+]=[N-])c2ccc(-c3ccccc3)cc2)nc(SC(C)C)[nH]c1=O (stereo unspecified) | > 308 | 16 | 0.37 | 65.4 |  | > 308 | 4.41 | 2.06 | 20.9 |  |
| CC(C)Sc1nc(C(N=[N+]=[N-])c2ccc3ccccc3c2)c(C(C)C)c(=O)[nH]1 (stereo unspecified) | > 4.78 | 7.39 | 0.09 | > 58.7 | < 1 | 4.79 | 1.4 | 1.06 | 3.3 |  |
| CC(C)Sc1nc(C(N=[N+]=[N-])c2ccc(Br)cc2)c(C(C)C)c(=O)[nH]1 (stereo unspecified) | 1.45 | > 32.2 | 3.69 | > 32.3 | 23 | 32.8 | > 32.2 | 1.44 | 8.2 |  |
| Cc1ccc(C(N=[N+]=[N-])c2nc(SC(C)C)[nH]c(=O)c2C)cc1 (stereo unspecified) | 0.083 |  |  |  | 93 | 7.73 |  |  |  |  |
| CCc1c(C(N=[N+]=[N-])c2ccc(Cl)cc2)nc(SC(C)C)[nH]c1=O (stereo unspecified) | 0.26 | > 127 | 0.81 | > 344 | > 1310 | > 344 | 95.2 | 3.69 | 14.3 |  |
| COc1cc(OC)cc(C(N=[N+]=[N-])c2nc(SC(C)C)[nH]c(=O)c2C)c1 (stereo unspecified) | 0.34 | 38.5 | 1.54 | > 333 | > 983 | > 333 | 9.85 | 2.62 | 107 |  |
| O=C1Nc2ccc(Cl)cc2[C@@](C#CC2CC2)(C(F)(F)F)O1 [EFAVIRENZ] |  | 0.28 |  |  |  |  |  |  |  |  |
| Cc1ccnc2c1NC(=O)c1cccnc1N2C1CC1 [NEVIRAPINE] |  | > 15 |  | > 15 |  | > 15 | 7.71 |  |  |  |
| Cc1cn([C@H]2C[C@H](N=[N+]=[N-])[C@@H](CO)O2)c(=O)[nH]c1=O [ZIDOVUDINE] |  | 0.026 |  |  | > 236 | > 7.06 | 0.023 | 0.012 | 0.024 |  |
